# Results: patent publication US10059713B2 (Takeda Pharmaceutical Company Limited, priority 2014, dated 2018)
# Target: human GPR43 (Homo sapiens (Human), UniProt O15552)
# Test: Ca-Flux functional assay: determination of agonist/positive allosteric modulator (PAM) activity
# Type: cell-based
# Details: CHO-K1 Gα16 cells stably expressing human GPR43; compound added with EC20 sodium acetate; intracellular Ca2+ by FLIPR; does not distinguish agonist from PAM
# Method in brief: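 Agonist or PAM activity read as intracellular Ca2+ rise by FLIPR after adding compound plus EC20 acetate, acetate EC20 set from a prior curve. Cells: CHO-K1 Gα16 with stable human GPR43. EC50 from ten-point half-log curves starting 10 μM.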
# Sequence of human GPR43 (O15552 whole entry): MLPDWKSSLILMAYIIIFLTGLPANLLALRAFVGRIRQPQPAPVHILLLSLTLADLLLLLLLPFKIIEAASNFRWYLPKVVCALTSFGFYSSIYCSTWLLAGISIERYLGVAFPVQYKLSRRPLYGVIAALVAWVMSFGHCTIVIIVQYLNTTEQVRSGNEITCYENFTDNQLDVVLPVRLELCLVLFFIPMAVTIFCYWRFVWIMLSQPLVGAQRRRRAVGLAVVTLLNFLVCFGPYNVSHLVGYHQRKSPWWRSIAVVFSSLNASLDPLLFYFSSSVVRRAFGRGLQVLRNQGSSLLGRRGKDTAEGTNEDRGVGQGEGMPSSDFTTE
row,Structure (SMILES),EC50
1,"Cc1nc(N2C[C@@H](C)OC[C@H]2C)c2[nH]c(N)c(S(=O)(=O)c3ccccc3)c2n1 [Example 217, 7-(benzenesulfonyl)-4-[(2R,5R)-2,5-dimethylmorpholin-4-yl]-2-methyl-5H-pyrrolo[3,2-d]pyrimidin-6-amine]",6 nM
2,"Nc1[nH]c2c(N3CCC(OCC4CC4)CC3)ncnc2c1S(=O)(=O)c1ccccc1 [Example 116, 7-(benzenesulfonyl)-4-[4-(cyclopropylmethoxy)piperidin-1-yl]-5H-pyrrolo[3,2-d]pyrimidin-6-amine]",80 nM
3,"Nc1[nH]c2c(N3CCC(F)(F)CC3)ccnc2c1S(=O)(=O)c1ccccc1 [Example 219, 3-(benzenesulfonyl)-7-(4,4-difluoropiperidin-1-yl)-1H-pyrrolo[3,2-b]pyridin-2-amine]",18 nM
4,"Nc1[nH]c2c(C3=CCCCC3)ncnc2c1S(=O)(=O)C1CCCCC1 [Example 50, 4-(cyclohex-1-en-1-yl)-7-(cyclohexanesulfonyl)-5H-pyrrolo[3,2-d]pyrimidin-6-amine]",80 nM
5,"Cc1nc(N2CCO[C@H](C)[C@@H]2C)c2[nH]c(N)c(S(=O)(=O)c3ccccc3F)c2n1 (racemic) [Example 275, 4-[(RS,SR)-2,3-dimethylmorpholin-4-yl]-7-(2-fluorobenzenesulfonyl)-2-methyl-5H-pyrrolo[3,2-d]pyrimidin-6-amine]",5 nM
6,"CC1CC1COc1ncnc2c(S(=O)(=O)c3ccccc3)c(N)[nH]c12 (stereo not drawn) [Example 172, 7-(benzenesulfonyl)-4-[(2-methylcyclopropyl)methoxy]-5H-pyrrolo[3,2-d]pyrimidin-6-amine]",78 nM
7,"Nc1[nH]c2c(N3CCC(F)CC3)ncnc2c1S(=O)(=O)c1ccccc1 [Example 46, 7-(benzenesulfonyl)-4-(4-fluoropiperidin-1-yl)-5H-pyrrolo[3,2-d]pyrimidin-6-amine]",153 nM
8,"Nc1[nH]c2c(C3=CCCCC3)ncnc2c1S(=O)(=O)c1ccc(OC(F)F)cc1 [Example 33, 4-(cyclohex-1-en-1-yl)-7-{[4-(difluoromethoxy)benzene]sulfonyl}-5H-pyrrolo[3,2-d]pyrimidin-6-amine]",52 nM
9,"CCC1CN(c2ncnc3c(S(=O)(=O)c4ccccc4)c(N)[nH]c23)CCO1 (stereo not drawn) [Example 79, 7-(benzenesulfonyl)-4-(2-ethylmorpholin-4-yl)-5H-pyrrolo[3,2-d]pyrimidin-6-amine]",40 nM
10,"CC1CN(c2nc(N(C)C)nc3c(S(=O)(=O)c4ccccc4F)c(N)[nH]c23)CCO1 (stereo not drawn) [Example 270, 7-(2-fluorobenzenesulfonyl)-2-N,2-N-dimethyl-4-(2-methylmorpholin-4-yl)-5H-pyrrolo[3,2-d]pyrimidine-2,6-diamine]",17 nM
11,"Cc1nc(C2CCCC2)c2[nH]c(N)c(S(=O)(=O)c3cccc(F)c3)c2n1 [Example 209, 4-cyclopentyl-7-(3-fluorobenzenesulfonyl)-2-methyl-5H-pyrrolo[3,2-d]pyrimidin-6-amine]",303 nM
12,"Cc1nc(OC2CCCC2)c2[nH]c(N)c(S(=O)(=O)c3ccccc3)c2n1 [Example 257, 7-(benzenesulfonyl)-4-(cyclopentyloxy)-2-methyl-5H-pyrrolo[3,2-d]pyrimidin-6-amine]",100 nM
13,"Cc1nc(N2CCO[C@@H](C)C2)c2[nH]c(N)c(S(=O)(=O)c3ccccc3F)c2n1 [Example 218, 7-(2-fluorobenzenesulfonyl)-2-methyl-4-[(2S)-2-methylmorpholin-4-yl]-5H-pyrrolo[3,2-d]pyrimidin-6-amine]",2 nM
14,"CC[C@@H](C)Oc1nc(C)nc2c(S(=O)(=O)c3ccccc3)c(N)[nH]c12 [Example 244, 7-(benzenesulfonyl)-4-[(2R)-butan-2-yloxy]-2-methyl-5H-pyrrolo[3,2-d]pyrimidin-6-amine]",31 nM
15,"CCC(Oc1nc(C)nc2c(S(=O)(=O)c3ccccc3)c(N)[nH]c12)C1CC1 (stereo not drawn) [Example 243, 7-(benzenesulfonyl)-4-(1-cyclopropylpropoxy)-2-methyl-5H-pyrrolo[3,2-d]pyrimidin-6-amine]",11 nM
